The values below are quoted from earlier work in US11081240B2, “Methods for treatment of hypertension with an angiotensin II receptor blocker pharmaceutical composition” (AstraZeneca UK Limited, priority 2018, dated 2021).

The conditions of series [1]: treatment of hypertension; at least 5 double-blind, placebo-controlled, randomized studies.
For series [2] the following is noted: co-administration of a potassium supplement with a single oral dose.
The conditions of series [3]: administered with a lithium medication.

As to `CCOc1nc2cccc(C(=O)OCc3oc(=O)oc3C)c2n1Cc1ccc(-c2ccccc2-c2noc(=O)[nH]2)cc1` [azilsartan medoxomil], the “efficacy to lower blood pressure” value in series [1] was “has been demonstrated”. In series [2], the “effect of a potassium supplement on the pharmacokinetics of the drug” value is reported as “no significant effect”. Besides, the “serum lithium concentrations / lithium toxicity on co-administration” value in series [3] is on record as “increases in the serum lithium concentrations and/or lithium toxicity have been observed”.
